This data set is described as follows: Solubility in water. The format is physicochemical. As to the method:
As used herein, the term “poorly water-soluble” or “poorly soluble” refers to having a solubility in water at 20° C. of less than 1%, i.e., a “sparingly soluble to practically insoluble, or insoluble drug” as described in Remington, The Science and Practice of Pharmacy, 21st Edition, p. 212, D. B. Troy, Ed., Lippincott Williams & Wilkins (2005).

≈ marks a conversion by molar mass, not a printed value.

As to `CN(Cc1ccccc1)C(=O)[C@H](Cc1ccc2ccccc2c1)N(C)C(=O)[C@@H]1CCCN1c1nc(=O)c2ccccc2[nH]1`, the solubility (in general, the dissolved amount per volume that the medium holds) came out at 10 µg/mL (≈ 17.4 µM).
As for `CC[C@@H]1/C=C(\C)C[C@H](C)C[C@H](OC)[C@H]2O[C@@](O)(C(=O)C(=O)N3CCCC[C@H]3C(=O)O[C@H](/C(C)=C/[C@@H]3CC[C@H](Cl)[C@H](OC)C3)[C@H](C)[C@@H](O)CC1=O)[C@H](C)C[C@@H]2OC` [Pimecrolimus], the “solubility in water (in words)” value is “insoluble in water”.

The record behind these values is patent US20080280999A1, “Process for Making Pharmaceutical Compositions with a Transient Plasticizer” (NOVARTIS AG, priority 2005, published 2008).
